Experimental data: the NIST ThermoML archive (doi:10.1016/j.jct.2013.08.034)
Numbers after ± are expanded uncertainties.

How the values were obtained:
[1] = Liquid; for electrical conductivity / viscosity: 101 kPa; for electrical conductivity: Conductivity Meter Jenco 3107; for viscosity: Cone and plate viscometry; for mass density: 101.33 kPa, Vibrating tube method
[2] = xn = mol fraction of the nth substance listed; conditions: 101 kPa, Liquid, x1 = 1; for electrical conductivity: Conductivity Meter Jenco 3107; for viscosity: Cone and plate viscometry

Work on CCCC[n+]1ccn(C)c1.O=S(=O)([N-]S(=O)(=O)C(F)(F)F)C(F)(F)F yielded an electrical conductivity ([1]; 293.15 K) of 0.337 ± 0.01 S/m, a viscosity ([1]; 293.15 K) of 62.08 ± 6.2 mPa·s and a mass density ([1]; 293.15 K) of 1439.27 ± 0.62 kg/m3. For the same compound, the electrical conductivity ([1]; 298.15 K) was 0.4 ± 0.012 S/m, the viscosity ([1]; 298.15 K) was 50.05 ± 5 mPa·s and the mass density ([1]; 298.15 K) was 1434.3 ± 0.61 kg/m3. For the same compound, the electrical conductivity ([1]; 303.15 K) was 0.472 ± 0.014 S/m, the viscosity ([1]; 303.15 K) was 41.24 ± 4.2 mPa·s and the mass density ([1]; 303.15 K) was 1429.4 ± 0.61 kg/m3. It also gave an electrical conductivity ([1]; 308.15 K) of 0.552 ± 0.017 S/m, a viscosity ([1]; 308.15 K) of 33.65 ± 3.4 mPa·s and a mass density ([1]; 308.15 K) of 1424.57 ± 0.6 kg/m3. It also gave an electrical conductivity ([1]; 313.15 K) of 0.64 ± 0.019 S/m, a viscosity ([1]; 313.15 K) of 28.28 ± 2.8 mPa·s and a mass density ([1]; 313.15 K) of 1419.61 ± 0.6 kg/m3. The electrical conductivity ([1]; 318.15 K) was 0.733 ± 0.022 S/m, the viscosity ([1]; 318.15 K) was 23.91 ± 2.4 mPa·s and the mass density ([1]; 318.15 K) was 1414.67 ± 0.6 kg/m3. The electrical conductivity ([1]; 323.15 K) was 0.835 ± 0.025 S/m, the viscosity ([1]; 323.15 K) was 20.64 ± 2.1 mPa·s and the mass density ([1]; 323.15 K) was 1409.65 ± 0.59 kg/m3. For the same compound, the electrical conductivity ([1]; 328.15 K) was 0.944 ± 0.028 S/m, the viscosity ([1]; 328.15 K) was 17.9 ± 1.8 mPa·s and the viscosity ([1]; 333.15 K) was 15.51 ± 1.6 mPa·s.

With CCCC[n+]1ccn(C)c1.O=S(=O)([N-]S(=O)(=O)C(F)(F)F)C(F)(F)F + CC1COC(=O)O1 the electrical conductivity ([2]; 293.15 K) was 0.337 ± 0.01 S/m, the viscosity ([2]; 293.15 K) was 62.08 ± 6.2 mPa·s and the electrical conductivity ([2]; 298.15 K) was 0.4 ± 0.012 S/m. It also gave a viscosity ([2]; 298.15 K) of 50.05 ± 5 mPa·s, an electrical conductivity ([2]; 303.15 K) of 0.472 ± 0.014 S/m and a viscosity ([2]; 303.15 K) of 41.24 ± 4.2 mPa·s. It also gave an electrical conductivity ([2]; 308.15 K) of 0.552 ± 0.017 S/m, a viscosity ([2]; 308.15 K) of 33.65 ± 3.4 mPa·s and an electrical conductivity ([2]; 313.15 K) of 0.64 ± 0.019 S/m. It also gave a viscosity ([2]; 313.15 K) of 28.28 ± 2.8 mPa·s, an electrical conductivity ([2]; 318.15 K) of 0.733 ± 0.022 S/m and a viscosity ([2]; 318.15 K) of 23.91 ± 2.4 mPa·s. It also gave an electrical conductivity ([2]; 323.15 K) of 0.835 ± 0.025 S/m, a viscosity ([2]; 323.15 K) of 20.64 ± 2.1 mPa·s and an electrical conductivity ([2]; 328.15 K) of 0.944 ± 0.028 S/m. For the same compound, the viscosity ([2]; 328.15 K) was 17.9 ± 1.8 mPa·s and the viscosity ([2]; 333.15 K) was 15.51 ± 1.6 mPa·s.

With CC1COC(=O)O1 (configuration not stated) [4-methyl-1,3-dioxolan-2-one] the viscosity ([1]; 293.15 K) was 2.86 ± 0.29 mPa·s, the mass density ([1]; 293.15 K) was 1204.81 ± 0.41 kg/m3 and the viscosity ([1]; 298.15 K) was 2.65 ± 0.27 mPa·s. For the same compound, the mass density ([1]; 298.15 K) was 1199.02 ± 0.4 kg/m3, the viscosity ([1]; 303.15 K) was 2.44 ± 0.24 mPa·s and the mass density ([1]; 303.15 K) was 1194 ± 0.4 kg/m3. For the same compound, the viscosity ([1]; 308.15 K) was 2.23 ± 0.22 mPa·s, the mass density ([1]; 308.15 K) was 1188.57 ± 0.39 kg/m3 and the viscosity ([1]; 313.15 K) was 2.05 ± 0.21 mPa·s. The mass density ([1]; 313.15 K) was 1183.11 ± 0.39 kg/m3, the viscosity ([1]; 318.15 K) was 1.9 ± 0.19 mPa·s and the mass density ([1]; 318.15 K) was 1177.55 ± 0.38 kg/m3. The viscosity ([1]; 323.15 K) was 1.78 ± 0.18 mPa·s, the mass density ([1]; 323.15 K) was 1171.96 ± 0.38 kg/m3 and the viscosity ([1]; 328.15 K) was 1.63 ± 0.16 mPa·s. It also gave a viscosity ([1]; 333.15 K) of 1.54 ± 0.15 mPa·s.
